What was measured:
[1] = target: T1, CDK4/Cyclin D1 (Homo sapiens, UniProt P11802); test: CDK4/CyclinD1 enzymatic activity assay (TR-FRET); assay type: biochemical; conditions: ATP 2 mM final, read-out: CDK4_D1 IC50
T1 construct: purchased ProQinase; host or cells: insect cell
Protocol: CDK4/CyclinD1 Enzymatic Activity Assay
(§1) The inhibitory activity of compounds was evaluated in vitro using TR-FRET assay with white 384-well low volume microplate (Greiner Bio-One). CDK4/Cyclin D1 catalyzed phosphorylation of peptide in the presence and absence of compounds was measured and used in IC50 determination. Recombinant protein complex CDK4/Cyclin D1, expressed from insect cell, was purchased from ProQinase. Testing compounds were dissolved in DMSO at 1 mM and tested in 9-dose IC50 mode. The reaction mixture was prepared by mixing CDK4/CyclinD1 (1 nM final), ULight-4E-BP1 (100 nM final, Perkinelmer, TRF0128-D), and ATP (2 mM final) in assay buffer (20 mM of HEPES pH 7.4, 1 mM of EGTA, 0.05% BSA, 0.005% Tween 20, and 1 mM TCEP). The compound of interest in DMSO was added to each well in 3-fold serial dilution by dispenser (TECAN D300E) to make a 9.9 μL of reaction mixture. After 20 minutes preincubation at room temperature, 0.1 μL MgCl2 (10 mM final) was added to initiate the reaction. Following a 45 minutes incubation at 37° C., the reaction was stopped by addition of 2 μL of quenching buffer consisting of Lance detection buffer (Perkinelmer CR97-100C), LANCE Ultra Europium-anti-P-4E-BP1 (Perkinelmer, TRF0216-D), EDTA, and incubate at room temperature for additional 60 minutes in dark. The reaction signal was measured by Envision multimode plate reader (PerkinElmer, 2102-0010). IC50 values were determined by fitting the data to the standard 4 parameters with Hill Slope using GraphPad Prism software.

[2] = tested on: OVCAR3 p-RB; test: pRB ICW assay in OVCAR3 cells; assay type: cell-based; conditions: Homo sapiens, OVCAR-3, 2 hours incubation with compound
Protocol: pRB ICW Assay in OVCAR3 Cells
OVCAR3 cells were maintained in RPMI (Corning, Catalog #: 10-040-CV) supplemented with 10% v/v FBS (Gibco, Catalog #: 26140-079), 1% v/v Penicillin Streptomycin (Gibco, Catalog #15140-122.) OVCAR3 cells grown at log phase were trypsinized, counted, and resuspended in fresh medium to reach a final density of 6.7e4 cells/ml and 75 μL of culture were dispensed into a 384-well plate (Falcon, cat #353962) using Multidrop Combi dispenser (Thermo Scientific). The next day, compounds were dispensed as a 9-point, ½ log serial dilution using a Tecan digital dispenser (D300e), and cells were incubated with compound for 2 hours in a humidified incubator at 37° C. A reference compound at a final concentration of 10 μM was used as a control for maximum inhibition. Each compound was tested in duplicates in each experiment. At the end of the incubation, 25 μl of 16% paraformaldehyde (Electron Microscopy, cat #15710) was slowly added to each well and the plate was incubated at room temperature (RT) for 30 minutes to fix cells. Cells were then permeabilized by incubating with 50 μl/well of wash buffer (1×PBS with 0.1% Triton X-100) 5×5 minutes, followed by 1 hour blocking with 30 μl/well of Odyssey blocking buffer (Li—COR, cat #927-40000), all at RT. Anti-phosphor RB antibody (Cell signaling 8516S) was diluted 1:1000 in Odyssey blocking buffer and 20 μl was added to all wells and incubated overnight in 4° C. with gently rocking. The next day, cells were washed 5×5 min with 50 μl/well of wash buffer, followed with 1 hour incubation with secondary antibody and DRAQ5 diluted in Odyssey blocking buffer (1:500 dilution for secondary antibody and 1:2000 dilution for DRAQ5), 5×5 min washes, and one last wash with water. Plates were dried in 37° C. oven for 5 min and scanned using Li—COR Odyssey CLx imaging system to acquire intensities at 700 and 800 nm channels.

[3] = target: CDK2/Cyclin E2 (Homo sapiens, UniProt P24941); test: CDK2/CyclinE2 enzymatic activity assay (TR-FRET); assay type: biochemical; conditions: ATP 1 mM final, read-out: CDK2_E1 IC50
Protocol: CDK2/CyclinE2 Enzymatic Activity Assay
as §1, with “Bio-One). CDK2/Cyclin E2” for “Bio-One). CDK4/Cyclin D1”, “complex CDK2/Cyclin E2,” for “complex CDK4/Cyclin D1,”, “mixing CDK2/CyclinE2” for “mixing CDK4/CyclinD1”, “ULight-4E-BP1 (50” for “ULight-4E-BP1 (100”, “ATP (1” for “ATP (2”

T1 sequence (P11802 whole entry): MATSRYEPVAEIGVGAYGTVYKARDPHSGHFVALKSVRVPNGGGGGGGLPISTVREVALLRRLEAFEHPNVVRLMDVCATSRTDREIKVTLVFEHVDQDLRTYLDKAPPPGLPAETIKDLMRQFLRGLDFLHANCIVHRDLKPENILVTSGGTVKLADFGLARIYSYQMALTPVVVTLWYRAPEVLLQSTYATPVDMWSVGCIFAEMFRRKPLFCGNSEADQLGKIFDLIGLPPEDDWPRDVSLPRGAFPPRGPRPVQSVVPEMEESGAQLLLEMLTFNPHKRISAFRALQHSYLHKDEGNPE
T1 sequence (P24385 whole entry partner): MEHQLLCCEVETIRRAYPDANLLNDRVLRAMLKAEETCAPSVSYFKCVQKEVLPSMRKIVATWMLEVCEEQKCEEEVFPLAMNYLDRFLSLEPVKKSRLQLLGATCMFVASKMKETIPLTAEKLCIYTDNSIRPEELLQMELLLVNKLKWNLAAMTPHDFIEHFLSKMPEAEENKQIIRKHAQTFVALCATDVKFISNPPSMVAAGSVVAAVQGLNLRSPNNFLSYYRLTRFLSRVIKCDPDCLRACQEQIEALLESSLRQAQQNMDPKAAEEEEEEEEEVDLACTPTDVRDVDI

| Structure (SMILES) | IC50 [1] [nM] | IC50 [2] [nM] | IC50 [3] [nM] |
| --- | --- | --- | --- |
| Cn1cc(S(=O)(=O)N2CC[C@@H](Nc3ncc(C(F)(F)F)c(-c4cc5c(s4)C(C)(C)NC5=O)n3)[C@H](F)C2)cn1 [Example 16, 2-(2-(((3R,4R)-3-fluoro-1-((1-methyl-1H-pyrazol-4-yl)sulfonyl)piperidin-4-yl)amino)-5-(trifluoro-methyl)pyrimidin-4-yl)-6,6-dimethyl-5,6-dihydro-4H-thieno[2,3-c]pyrrol-4-one] | ≤ 100 | ≤ 100 | ≤ 100 |
| CS(=O)(=O)N1CCC(Nc2ncc(C(F)(F)F)c(-c3cc4c(s3)CNC4=O)n2)CC1 [Example 17, 2-(2-((1-(methylsulfonyl)piperidin-4-yl)amino)-5-(trifluoromethyl)pyrimidin-4-yl)-5,6-dihydro-4H-thieno[2,3-c]pyrrol-4-one] | ≤ 100 | ≤ 100 | ≤ 100 |
| Cn1cc(S(=O)(=O)N2CCC(Nc3ncc(C(F)(F)F)c(-c4cc5c(s4)CNC5=O)n3)CC2)cn1 [Example 20, 2-(2-((1-((1-methyl-1H-pyrazol-4-yl)sulfonyl)piperidin-4-yl)amino)-5-(trifluoromethyl)pyrimidin-4-yl)-5,6-dihydro-4H-thieno[2,3-c]pyrrol-4-one] | ≤ 100 | ≤ 100 | ≤ 100 |
| C[C@@H]1CN(S(=O)(=O)c2cnn(C)c2)CC[C@@H]1Nc1ncc(C(F)(F)F)c(-c2cc3c(s2)CNC3=O)n1 [Example 21, 2-(2-(((3R,4S)-3-methyl-1-((1-methyl-1H-pyrazol-4-yl)sulfonyl)piperidin-4-yl)amino)-5-(trifluoro-methyl)pyrimidin-4-yl)-5,6-dihydro-4H-thieno[2,3-c]pyrrol-4-one] | ≤ 100 | ≤ 100 | ≤ 100 |
| Cn1cc(S(=O)(=O)N2CCC(Nc3ncc(C(F)(F)F)c(-c4cc5c(s4)C(=O)NC5)n3)CC2)cn1 [Example 23, 2-(2-((1-((1-Methyl-1H-pyrazol-4-yl)sulfonyl)piperidin-4-yl)amino)-5-(trifluoromethyl)pyrimidin-4-yl)-4,5-dihydro-6H-thieno[2,3-c]pyrrol-6-one] | 100 to 500 | 100 to 500 | ≤ 100 |
| CS(=O)(=O)N1CCC(Nc2ncc(C(F)(F)F)c(-c3cc4c(s3)C(=O)NC4)n2)CC1 [Example 24, 2-(2-((1-(Methylsulfonyl)piperidin-4-yl)amino)-5-(trifluoromethyl)pyrimidin-4-yl)-4,5-dihydro-6H-thieno[2,3-c]pyrrol-6-one] | > 500 | > 500 | ≤ 100 |

Other lines, results leading:

| IC50 [1] [nM] | IC50 [2] [nM] | IC50 [3] [nM] | Structure (SMILES) |
| --- | --- | --- | --- |
| ≤ 100 | ≤ 100 | ≤ 100 | CC1(C)NC(=O)c2cc(-c3nc(N[C@@H]4CCN(S(C)(=O)=O)C[C@H]4F)ncc3C(F)(F)F)sc21 [Example 13, 2-(2-(((3R,4R)-3-fluoro-1-(methylsulfonyl)piperidin-4-yl)amino)-5-(trifluoro-methyl)pyrimidin-4-yl)-6,6-dimethyl-5,6-dihydro-4H-thieno[2,3-c]pyrrol-4-one] |
| ≤ 100 | ≤ 100 | ≤ 100 | CC1(C)NC(=O)c2cc(-c3nc(N[C@H]4CCN(S(C)(=O)=O)C[C@H]4F)ncc3C(F)(F)F)sc21 [Example 14, 2-(2-(((3R,4S)-3-fluoro-1-(methylsulfonyl)piperidin-4-yl)amino)-5-(trifluoro-methyl)pyrimidin-4-yl)-6,6-dimethyl-5,6-dihydro-4H-thieno[2,3-c]pyrrol-4-one] |
| ≤ 100 | ≤ 100 | ≤ 100 | Cn1cnc(S(=O)(=O)N2CC[C@H](Nc3ncc(C(F)(F)F)c(-c4cc5c(s4)C(C)(C)NC5=O)n3)[C@H](F)C2)c1 [Example 15, 2-(2-(((3R,4S)-3-fluoro-1-((1-methyl-1H-imidazol-4-yl)sulfonyl)piperidin-4-yl)amino)-5-(trifluoro-methyl)pyrimidin-4-yl)-6,6-dimethyl-5,6-dihydro-4H-thieno[2,3-c]pyrrol-4-one] |

Source: patent US20240352029A1, “CDK Inhibitors And Their Use As Pharmaceuticals” (Prelude Therapeutics Incorporated, priority 2023, published 2024)
